Our source for the mortality values is ChEMBL document CHEMBL1681773, “Toxic polyketides produced by Fusarium sp., an endophytic fungus isolated from Melia azedarach” (Bioorg Med Chem Lett, 2011).

A short description of the data set: Toxicity in brine shrimps larvae assessed as mortality at 10 ug/ml after 24 hrs. Conditions: artemia, brine shrimp larvae; read-out: Activity. In kind it is organism-based.

In the case of `C[C@H]1C/C=C/[C@@H](O)[C@@H](O)CC/C=C/c2cc(O)cc(O)c2C(=O)O1` [AIGIALOMYCIN D], the mortality at 24 h, 10 ug/ml amounted to 76.7%.

On to `C[C@@H]1C[C@@H](O)/C=C\[C@H](O)CCC(=O)Cc2c(Cl)c(O)cc(O)c2C(=O)O1` [POCHONIN N], for which the mortality at 24 h, 10 ug/ml was 82.8%.

In the case of `C[C@H](O)C/C=C/CCCCc1cc2cc(O)cc(O)c2c(=O)o1` [FUSARIUMIN], the mortality at 24 h, 10 ug/ml is 78.2%.
